For 25 compounds, T/C results are on record in PubChem BioAssay AID330 (DTP/NCI, 2004).

For this test, the system named is P388 leukemia ip, CD2F1 mice, survival T/C. In words: NCI In Vivo Anticancer Drug Screen. Data for tumor model P388 Leukemia (intraperitoneal) in CD2F1 (CDF1) mice. As to conditions: endpoint: median survival time, higher = longer survival. The essentials: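 Mice carrying the transplanted tumor received test compound or vehicle. Survival was recorded in each group, and the value is the treated-group measurement divided by that of the vehicle-treated control group.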

Setting [1] is: dose: 60.0 mg/kg/injection, schedule: Q01DX005 (ip), vehicle: saline with Tween-80.
Setting [2] is: dose: 120.0 mg/kg/injection, schedule: Q01DX005 (ip), vehicle: saline with Tween-80.
The mark [3] stands for this setting: dose: 240.0 mg/kg/injection, schedule: Q01DX005 (ip), vehicle: saline with Tween-80.
[4] abbreviates: dose: 50.0 mg/kg/injection, schedule: Q01DX005 (ip), vehicle: saline with Tween-80.
Setting [5] is: dose: 100.0 mg/kg/injection, schedule: Q01DX005 (ip), vehicle: saline with Tween-80.
Where [6] appears, read: dose: 200.0 mg/kg/injection, schedule: Q01DX005 (ip), vehicle: saline with Tween-80.
Where [7] appears, read: dose: 50.0 mg/kg/injection, schedule: Q01DX009 (ip), vehicle: saline with Tween-80.
Setting [8] is: dose: 100.0 mg/kg/injection, schedule: Q01DX009 (ip), vehicle: saline with Tween-80.
[9] abbreviates: dose: 50.0 mg/kg/injection, schedule: Q01DX005 (ip), vehicle: Klucel (hydroxypropylcellulose) (HPC).
Where [10] appears, read: dose: 100.0 mg/kg/injection, schedule: Q01DX005 (ip), vehicle: Klucel (hydroxypropylcellulose) (HPC).
Setting [11] is: dose: 200.0 mg/kg/injection, schedule: Q01DX005 (ip), vehicle: Klucel (hydroxypropylcellulose) (HPC).
Where [12] appears, read: dose: 25.0 mg/kg/injection, schedule: Q01DX005 (ip), vehicle: saline with Tween-80.
[13] abbreviates: dose: 25.0 mg/kg/injection, schedule: Q01DX009 (ip), vehicle: saline with Tween-80.
Where [14] appears, read: dose: 200.0 mg/kg/injection, schedule: Q01DX009 (ip), vehicle: saline with Tween-80.
The mark [15] stands for this setting: dose: 12.5 mg/kg/injection, schedule: Q01DX005 (ip), vehicle: saline with Tween-80.

SMILES strings stand for the structures. Values joined by “and” are separate entries in the source; they are usually repeats but may differ in a detail not shown here. Equal entries are not always repeated. Inconclusive results and toxic doses are left out. Peptide text beside a SMILES is read from it. * marks the point of attachment. Cbz = O=C(OCc1ccccc1)*; OtBu = CC(C)(C)O*

For the compound `CC(C)CC(N)C(=O)NC(Cc1cnc[nH]1)C(=O)O` (stereo not drawn) (H-Leu-His-OH; configuration not given here), the T/C by setting is: (dose: 60.0 mg/kg/injection, schedule: Q01DX005 (ip), vehicle: saline) 97 % of control; (dose: 120.0 mg/kg/injection, schedule: Q01DX005 (ip), vehicle: saline) 106 % of control; (dose: 240.0 mg/kg/injection, schedule: Q01DX005 (ip), vehicle: saline) 104 % of control.

With `COc1cc(C(c2cc3c(cc2O)OCO3)N2CCN(C(c3cc(OC)c(O)c(OC)c3)c3cc4c(cc3O)OCO4)CC2)cc(OC)c1O` (stereo not given), the T/C under setting [1] is 91 % of control, the T/C under setting [2] is 89 % of control and the T/C under setting [3] is 91 % of control.

As for `COc1ccc(C(C)c2cc3c(cc2OCC(=O)O)OCO3)cc1OC` (stereo not given), the T/C by setting is: (dose: 50.0 mg/kg/injection, schedule: Q01DX005 (ip), vehicle: distilled water + Tween-80) 95 % of control; (dose: 100.0 mg/kg/injection, schedule: Q01DX005 (ip), vehicle: distilled water + Tween-80) 102 % of control.

As to `CC(=O)NC(Cc1ccccc1)C(=O)NC(Cc1ccccc1)C(=O)O` (stereo not drawn) (Ac-Phe-Phe-OH; configuration not given here), the T/C under setting [4] was 107 % of control, the T/C under setting [5] was 103 % of control and the T/C under setting [6] was 94 % of control.

Turning to `COC1=C(N)C(=O)c2cccnc2C1=O`, the T/C is 92 % of control (dose: 3.13 mg/kg/injection, schedule: Q01DX009 (ip), vehicle: DMSO); 92 % of control (dose: 6.25 mg/kg/injection, schedule: Q01DX009 (ip), vehicle: DMSO); 100 % of control (dose: 12.5 mg/kg/injection, schedule: Q01DX009 (ip), vehicle: DMSO); 109 % of control (dose: 25.0 mg/kg/injection, schedule: Q01DX009 (ip), vehicle: DMSO).

`COc1ccc(C(=S)NC(O)C(=O)c2ccc(Cl)cc2)cc1OC` (stereo not given): the T/C was 103 % of control under setting [7] and 103 % of control under setting [8].

With `O=C(O)C(C1CCCCC1)C1(O)CCCCCC1` (stereo not given), the T/C by setting is: under setting [9], 97 % of control; under setting [10], 103 % of control; under setting [11], 100 % of control.

For `CC(C)(C)OC(=O)CCC(NC(=O)C(CCC(=O)OC(C)(C)C)NC(=O)C(CCC(=O)OC(C)(C)C)NC(=O)OCc1ccccc1)C(=O)O` (stereo not given) (Cbz-Glu(OtBu)-Glu(OtBu)-Glu(OtBu)-OH; configuration not given here), the T/C under setting [4] is 104 % of control, the T/C under setting [5] was 100 % of control and the T/C under setting [6] was 96 % of control.

On to `CC(C)(C)C1CCC2(CC1)OCC1CCCN12` (stereo not given), for which the T/C reads like this: under setting [12], 88 % of control; under setting [4], 88 % of control; under setting [5], 95 % of control.

As for `c1ccc(N=C2c3ccccc3NC2(c2ccccc2)c2ccccc2)cc1`, the T/C reads like this: under setting [7], 101 % of control; under setting [8], 93 % of control.

For the compound `CC(C)CC(=O)CC(=O)C(C)(C)C.CC(C)CC(=O)CC(=O)C(C)(C)C.[Cu]`, the T/C by setting is: (dose: 25.0 mg/kg/injection, schedule: Q04DX003 (ip), vehicle: Klucel (hydroxypropylcellulose) (HPC)) 100 % of control; (dose: 50.0 mg/kg/injection, schedule: Q04DX003 (ip), vehicle: Klucel (hydroxypropylcellulose) (HPC)) 101 % of control; (dose: 100.0 mg/kg/injection, schedule: Q04DX003 (ip), vehicle: Klucel (hydroxypropylcellulose) (HPC)) 98 % of control and 106 % of control.

For the compound `CC(C)CC(NC(=O)CN)C(=O)O` (stereo not given), the T/C runs as follows: (dose: 25.0 mg/kg/injection, schedule: Q01DX005 (ip), vehicle: saline) 103 % of control; under setting [13], 95 % of control; (dose: 50.0 mg/kg/injection, schedule: Q01DX005 (ip), vehicle: saline) 101 % of control; under setting [7], 89 % of control; (dose: 100.0 mg/kg/injection, schedule: Q01DX005 (ip), vehicle: saline) 103 % of control; under setting [8], 88 % of control. Also, the T/C was 99 % of control (dose: 200.0 mg/kg/injection, schedule: Q01DX005 (ip), vehicle: saline) and 91 % of control under setting [14].

As for `CC1(c2ccc(S(=O)(=O)c3ccccc3)cc2)OC(=O)C=CC1=O` (stereo not given), the T/C (dose: 6.25 mg/kg/injection, schedule: Q01DX005 (ip), vehicle: saline with Tween-80) is 89 % of control; the T/C under setting [15] was 89 % of control; the T/C under setting [12] is 115 % of control; the T/C under setting [4] was 120 % of control.

On to `O=C(O)c1cnccc1C(=O)c1ccccc1`, for which the T/C under setting [9] was 101 % of control, the T/C under setting [10] was 101 % of control and the T/C under setting [11] is 92 % of control.

As to `[O-]/[N+]1=[N+](\[O-])c2ccccc2COCc2ccccc21`, the T/C was 96 % of control under setting [1], 93 % of control under setting [2] and 89 % of control under setting [3].

Consider `N#Cc1c2c(c(O)[nH]c1=O)C(=O)c1ccccc1-2`, for which the T/C is, setting by setting: (dose: 12.5 mg/kg/injection, schedule: Q01DX009 (ip), vehicle: saline with Tween-80) 115 % of control; under setting [13], 104 % of control; under setting [7], 93 % of control.

As for `C/C(=N\NC(=S)Nc1ccc(S(N)(=O)=O)cc1)c1ccccn1`, the T/C is 94 % of control under setting [15], 108 % of control under setting [12], 119 % of control under setting [4] and 96 % of control under setting [5].

Take `CC(C)(C#N)NNC(N)=S`: the T/C (dose: 3.12 mg/kg/injection, schedule: Q01DX009 (ip), vehicle: saline) was 103 % of control; the T/C (dose: 6.25 mg/kg/injection, schedule: Q01DX009 (ip), vehicle: saline) was 100 % of control; the T/C (dose: 12.5 mg/kg/injection, schedule: Q01DX009 (ip), vehicle: saline) was 87 % of control and 93 % of control; the T/C (dose: 50.0 mg/kg/injection, schedule: Q04DX003 (ip), vehicle: saline) is 96 % of control; the T/C (dose: 100.0 mg/kg/injection, schedule: Q04DX003 (ip), vehicle: saline) is 96 % of control; the T/C (dose: 200.0 mg/kg/injection, schedule: Q04DX003 (ip), vehicle: saline) is 94 % of control.

Turning to `O=S(=O)(F)c1ccc2nc(-c3cccc(Sc4ccccc4)c3)cc(Cl)c2c1`, the T/C by setting is: under setting [8], 100 % of control; under setting [14], 95 % of control; (dose: 400.0 mg/kg/injection, schedule: Q01DX009 (ip), vehicle: saline with Tween-80) 95 % of control.

Regarding `COc1ccc2c3c1OC1c4[nH]ncc4C[C@H]4[C@@H](C2)N(C)CC[C@]314` (stereo not given in full), the T/C reads like this: (dose: 100.0 mg/kg/injection, schedule: Q04DX002 (ip), vehicle: saline with Tween-80) 108 % of control; (dose: 200.0 mg/kg/injection, schedule: Q04DX002 (ip), vehicle: saline with Tween-80) 99 % of control.

Consider `Cc1ccc2c(c1)Nc1c(ccc3ccccc13)S2`, for which the T/C by setting is: under setting [4], 105 % of control; under setting [5], 105 % of control; under setting [6], 103 % of control.

Consider `CSC(=S)SC(SC)S(C)(=O)=O` (stereo not given), for which the T/C (dose: 3.12 mg/kg/injection, schedule: Q01DX009 (ip), vehicle: Klucel (hydroxypropylcellulose) (HPC)) is 103 % of control; the T/C (dose: 6.25 mg/kg/injection, schedule: Q01DX009 (ip), vehicle: Klucel (hydroxypropylcellulose) (HPC)) is 112 % of control; the T/C (dose: 12.5 mg/kg/injection, schedule: Q01DX009 (ip), vehicle: Klucel (hydroxypropylcellulose) (HPC)) is 110 % of control and 117 % of control; the T/C (dose: 25.0 mg/kg/injection, schedule: Q01DX009 (ip), vehicle: Klucel (hydroxypropylcellulose) (HPC)) was 93 % of control.

With `Nc1ccc2c3c(cccc13)C(=O)N(CCCBr)C2=O`, the T/C reads like this: under setting [1], 103 % of control; under setting [2], 113 % of control; under setting [3], 107 % of control.

With `Nc1ccccc1N`, the T/C was 95 % of control under setting [13]; 120 % of control under setting [8]; 100 % of control (dose: 100.0 mg/kg/injection, schedule: Q04DX003 (ip), vehicle: saline sonified); 185 % of control under setting [14].

As to `NSc1ccccn1`, the T/C reads like this: (dose: 25.0 mg/kg/injection, schedule: Q01DX001 (ip), vehicle: Klucel (hydroxypropylcellulose) (HPC)) 96 % of control; (dose: 50.0 mg/kg/injection, schedule: Q01DX001 (ip), vehicle: Klucel (hydroxypropylcellulose) (HPC)) 96 % of control; (dose: 100.0 mg/kg/injection, schedule: Q01DX001 (ip), vehicle: Klucel (hydroxypropylcellulose) (HPC)) 97 % of control; (dose: 100.0 mg/kg/injection, schedule: Q01DX001 (ip), vehicle: saline with Tween-80) 102 % of control.
